Where two headings read alike, the source gives them in different places.
Key:
[1] = system: pseudofolliculitis barbae (PFB); test: 10-week double blind, placebo-controlled, cross-over clinical trial in PFB; format: in vivo, human; details: 15% in 60% alcohol, 1% ULTREZ 10, 24% water; PFB subjects
Excerpt: PFB efficacy is examined by a 10-week double blind, placebo-controlled, cross-over clinical trial. […] Papules, pustules, and ingrown hairs as defined below are counted and recorded. The primary objectives of this study are: • To determine the efficacy of various NSAID compositions applied at various intervals ranging from every other day to twice per day for five weeks in reducing the signs and symptoms of PFB; and • To determine the safety and tolerability of the various NSAID compositions. Papules, pustules, and ingrown hairs as defined below are counted and recorded. Lesions are counted on the neck, lower left and right cheeks, and jaw line (beard area). The same qualified physician completes the assessment at each visit. Each assessment is performed independent of previous assessments. Subjects have a total of at least 10 (for moderate) of 2 (for mild) follicular papules, pustules, or ingrown hairs at the Baseline Visit to be admitted to the study. Inflammatory and/or nodulocystic lesions, erythema, and hyperpigmentation are assessed according to the following six-point Likert (categorical) scale: • 0 None: […] Rare noninflammatory lesions present (lesions must be resolving and may be hyperpigmented, though not pink/red). Barely perceptible elevation (discernable by touch only). • 2 Mild: Noninflammatory lesions predominate, with few inflammatory papules/pustules. Light red color. Visible but mild elevation. No nodulocystic lesions. • 3 Moderate: Some noninflammatory lesions are present with multiple inflammatory lesions evident. Definite lesion redness and elevation. There may or may not be one small nodulocystic lesion. • 4 Severe: Highly inflammatory lesions predominate. Deep intense red color. Marked dermal swelling and in duration in widespread areas. There may or may not be a few nodulocystic lesions. • 5 Very Severe: Many nodulocystic lesions. Results are recorded in the source document and on the appropriate CRF. The same qualified physician will complete the assessment at each visit. Each assessment should be performed independent of previous assessments. Subjects must have a rating of at least moderate (3) at the Baseline Visit to be admitted to the study. All subjects are asked to evaluate specific PFB symptoms of itch, pain, and shaving discomfort, as well as the overall condition of their PFB at the Baseline, and weekly thereafter (“Subject's Assessment of Symptoms”). […] Global Assessment of Improvement. Subjects are asked to compare the overall condition of their PFB at the week 2, 4, and 6 visits with the overall condition before treatment using the following five-point Likert (categorical) scale: • 2 Overall condition and shaving comfort much better than before treatment. • 1 Overall condition and shaving comfort slightly better than before treatment. • 0 Overall condition and shaving comfort unchanged, same as before treatment. • −1 Overall condition and shaving comfort slightly worse than before treatment. • […] than before treatment. Each assessment is performed independent of previous assessments. The prodrug compositions are tested on PFB subjects according to Example 22 including pharmacokinetic analysis.

skin of minipigs [2] = test: C14-labeled compositions applied to skin of minipigs, punch biopsies and serum samples; details: 15% in 60% alcohol, 1% ULTREZ 10, 24% water; for Diffusion Rate (1 = high, 5 = low): 0.2 gm per cm^2 skin, biopsies 30 seconds to 24 hours; for Systemic Levels (1 = high, 5 = low): serum samples
[3] = Prodrug (ibuprofen ethyl ester) generation upon storage, HPLC; format: physicochemical; details: compositions similar to 1a, presence or absence of salicylic acid
Protocol: It has been discovered that, in one embodiment, compositions of the present invention, upon storage, result in the generation of a prodrug form of the active ingredient. Such prodrug formation results from reaction of a carboxylic acid group of the active drug with the alcoholic solvent to form an ester linkage.
HPLC analysis was performed on composition la stored for 3 months at 25° C. A new peak (i.e., the prodrug) distinct from the ibuprofen peak was detected within the chromatographic profile.
Next, two grams of composition 1a were diluted in twenty-five milliliters of 50:50) water:acetonitrile. The solution was centrifuged and the supernatant collected or analysis.
Chromatography was conducted as follows: • Pumps: Hewlett Packard Model 1100 Binary Systems • Solvent A: Water • Solvent B: Acetonitrile • Gradient: Start 40% B • Raise to 60% B at 20 minutes • Raise to 90% B at 40 minutes • Flow Rate: 1.0 ml/min • Stationary Phase ZORBAX® CS (4.6×150 mm) • Column Temperature: 25 C • Injection volume […]
Sequential detection was performed by UV absorbance using an HP diode array detector followed by ESI-MS […] a Sciex QSTAR®/Pulsar quadrupole-TOF mass spectrometer operating in either the positive and negative ion modes.

skin of minipigs [4] = details: minipig, in vivo

Diffusion Rate (1 = high, 5 = low) (skin of minipigs [2])	Systemic Levels (1 = high, 5 = low) (skin of minipigs [2])	effect on rate of prodrug formation [3]	Diffusion Rate (1 = high, 5 = low) (skin of minipigs [4])	Systemic Levels (1 = high, 5 = low) (skin of minipigs [4])	Compound	Efficacy (1 = high, 5 = low) [1]
2	4	–	–	–	ethylisobutylphenyl-propionate [ibuprofen ethylester]	2
–	–	increases the rate of prodrug formation	–	–	O=C(O)c1ccccc1O [salicylic acid]	–
–	2	–	–	–	CC(C(=O)O)c1cccc(C(=O)c2ccccc2)c1 (stereo not drawn) [ketoprofen, reference compound]	5
–	–	–	3	3	CCOC(=O)C(C)c1cccc(C(=O)c2ccccc2)c1 (stereo not drawn) [ketoprofen ethylester]	3
1	5	–	–	–	CC(C)Cc1ccc(C(C)C(=O)OC(C)C)cc1 (stereo not drawn) [ibuprofen isopropyl ester]	1
3	3	–	–	–	CC(C)OC(=O)C(C)c1cccc(C(=O)c2ccccc2)c1 (stereo not drawn) [ketoprofen isopropyl ester]	3
